Data set [1] concerns cingulate and retrosplenial cortices. The following applies: mice and rats, cited from earlier work.
In data set [2] the test system is rats trained to distinguish between PCP and saline. The following applies: cited from earlier work.
The conditions of data set [3]: doses needed to relieve hyperalgesia in preclinical pain models; cited from earlier work.
Data set [4] in a line: Anesthetic-sparing effect of perzinfotel with isoflurane (summary statements). Type of data set: in vivo, dogs. Conditions: in combination with anesthetic (isoflurane); doses without reduced cardiopulmonary function.
The conditions of data set [5]: doses typically used clinically; cited from earlier work.

Read-outs that look alike come from different tables or passages of the source.

In the case of `O=C(O)[C@H]1C[C@@H](CP(=O)(O)O)CCN1` (relative stereo) [CGS-19755, cis-4-phosphonomethyl-2-piperidine carboxylic acid], in data set [1] (behaviorally effective doses), the “vacuoles in some layers of the cingulate and retrosplenial cortices” value is on record as “transient, reversible induction of vacuoles”. Besides, in data set [1], the “effectiveness:vacuolization ratio” value is listed as 1.
With `O=c1c2c(c1=O)N(CCP(=O)(O)O)CCCN2` [Perzinfotel, [2-(8,9-dioxo-2,6-diazabicyclo[5.2.0]non-1-(7)-en-2-yl)ethyl]phosphonic acid], the “substitution for PCP (discriminative stimulus effects)” value (“substitution for PCP” for short) in data set [2] is listed as “did not substitute”. Further, the ataxia or sedation result in data set [3] is reported as “did not produce ataxia or sedation”. In addition, in data set [4], the anesthetic-sparing effects result is given as “up to 60%”.
Turning to `CNC1(c2ccccc2Cl)CCCCC1=O` (centres unmarked) [ketamine], the anesthetic-sparing effects in data set [5] was 10-20%.
Take `CC12CC3CC(C)(C1)CC(N)(C3)C2` [memantine]: in data set [2], the “substitution for PCP” value is “substitute”.
As for `C[C@]12N[C@H](Cc3ccccc31)c1ccccc12` [dizocilpine], the “substitution for PCP” value in data set [2] was “substitute”.
